Measured values: US5866717A, “Metalloproteinase inhibitors” (British Biotech Pharmaceuticals Limited, priority 1994, dated 1999)
In brackets after ≈: the same amount, converted by molar mass.

What was measured:
aqueous solubility = format: physicochemical; details: for solubility: water, read-out: Aq. solubility
[1] = target: T1, Human fibroblast collagenase (Homo sapiens, UniProt P03956); assay: biochemical
T1 sequence (P03956 100-469): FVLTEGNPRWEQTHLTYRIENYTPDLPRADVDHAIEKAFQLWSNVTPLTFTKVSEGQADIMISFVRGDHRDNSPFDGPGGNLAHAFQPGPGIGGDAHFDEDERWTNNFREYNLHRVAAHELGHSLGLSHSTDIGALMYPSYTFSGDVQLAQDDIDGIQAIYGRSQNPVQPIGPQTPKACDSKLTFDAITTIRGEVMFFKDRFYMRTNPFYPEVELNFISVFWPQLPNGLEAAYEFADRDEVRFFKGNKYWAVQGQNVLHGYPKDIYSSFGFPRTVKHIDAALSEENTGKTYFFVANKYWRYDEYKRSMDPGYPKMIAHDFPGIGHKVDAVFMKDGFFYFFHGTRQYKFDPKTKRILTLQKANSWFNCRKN

Stromelysin-1 = Stromelysin-1 (Homo sapiens, UniProt P08254); assay: biochemical
Getatinase A = target: T2, Getatinase A (Homo sapiens, UniProt P08253); assay: biochemical
T2 sequence (P08253 110-660): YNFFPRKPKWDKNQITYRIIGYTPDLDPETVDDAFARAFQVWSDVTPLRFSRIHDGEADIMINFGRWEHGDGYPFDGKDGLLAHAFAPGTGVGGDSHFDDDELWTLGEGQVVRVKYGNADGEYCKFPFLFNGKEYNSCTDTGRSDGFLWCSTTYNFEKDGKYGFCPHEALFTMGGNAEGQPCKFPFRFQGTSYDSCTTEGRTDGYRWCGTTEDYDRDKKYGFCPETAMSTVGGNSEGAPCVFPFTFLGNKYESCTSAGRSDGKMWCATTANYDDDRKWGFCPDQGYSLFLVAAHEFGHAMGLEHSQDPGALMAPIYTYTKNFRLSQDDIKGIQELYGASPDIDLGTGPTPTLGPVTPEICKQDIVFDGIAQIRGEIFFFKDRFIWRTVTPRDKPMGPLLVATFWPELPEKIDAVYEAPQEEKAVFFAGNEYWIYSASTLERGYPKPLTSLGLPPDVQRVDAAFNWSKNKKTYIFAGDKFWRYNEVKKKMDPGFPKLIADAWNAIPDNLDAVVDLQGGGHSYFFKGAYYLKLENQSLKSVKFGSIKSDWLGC

[2] = effective blood concentrations after oral administration; format: in vivo; details: no data given

Chain of Stromelysin-1 (P08254 100-477, species assumed): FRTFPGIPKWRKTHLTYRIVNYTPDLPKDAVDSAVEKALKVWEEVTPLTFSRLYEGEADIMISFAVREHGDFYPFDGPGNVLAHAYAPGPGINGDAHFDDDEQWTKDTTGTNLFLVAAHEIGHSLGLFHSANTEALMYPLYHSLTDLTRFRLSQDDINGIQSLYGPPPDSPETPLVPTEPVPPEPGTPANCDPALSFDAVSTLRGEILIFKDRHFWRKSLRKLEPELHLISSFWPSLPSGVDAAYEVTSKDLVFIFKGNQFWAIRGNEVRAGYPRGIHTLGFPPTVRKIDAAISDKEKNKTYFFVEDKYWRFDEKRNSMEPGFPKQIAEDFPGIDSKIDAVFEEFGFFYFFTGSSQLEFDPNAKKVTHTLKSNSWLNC

For C=CC[C@H](C(=O)NO)[C@@H](CC(C)C)C(=O)N[C@H](C(=O)NCC(C)(COC)COC)C(C)(C)C [Example 6, 2S-Allyl-N^4 -{1S-[2,2-di-(methoxymethyl)-propylcarbamoyl}-2,2-dimethyl-propyl]-N^1-hydroxy-3R-isobutyl-succinamide], the solubility (aqueous solubility) was 400 µg/mL (≈ 848 µM), the IC50 [1] was 0.02 µM and the IC50 (Stromelysin-1) was 0.05 µM. The IC50 (Getatinase A) was 0.03 µM.
Compound CNC(=O)[C@@H](NC(=O)[C@H](CC(C)C)[C@H](O)C(=O)NO)C(C)(C)C [Comparator 1, N^4-(2,2-Dimethyl-1S-methylcarbamoyl-propyl)-2S, N^1-dihydroxy-3R -isobutyl-succinamide, reference compound] has a solubility (aqueous solubility) of 7700 µg/mL (≈ 23200 µM).
Work on CNC(=O)[C@@H](NC(=O)[C@H](CC(C)C)C(CSc1cccs1)C(=O)NO)C(C)(C)C (stereo partly drawn) [Comparator 3, N^1-(2,2-Dimethyl-1S-methylcarbamoyl-propyl)-N^4-hydroxy-2R -isobutyl-3-(thiophen-2-yl-sulfanylmethyl)-succinamide, reference compound] yielded a solubility (aqueous solubility) of 180 µg/mL (≈ 406 µM), an IC50 [1] of 0.001 µM and an IC50 (Stromelysin-1) of 0.04 µM. It also gave an IC50 (Getatinase A) of 0.02 µM.
In the case of COCCOCOCCNC(=O)[C@@H](NC(=O)[C@H](CC(C)C)[C@H](O)C(=O)NO)C(C)(C)C [Example 1, 2S, N^1 -Dihydroxy-3R-isobutyl-N^4 -{1S-[2-(2-methoxy-ethoxymethoxy)-ethylcarbamoyl]-2,2-dimethyl-propyl}-succinamide], the solubility (aqueous solubility) is reported as at least 29600 µg/mL, the IC50 [1] is reported as 0.01 µM and the IC50 (Stromelysin-1) is reported as 0.06 µM. It also gave an IC50 (Getatinase A) of 0.015 µM.
With C=CC[C@H](C(=O)NO)[C@@H](CC(C)C)C(=O)N[C@H](C(=O)NCCOCCOC)C(C)(C)C [Example 4, 2S-Allyl-N^1-hydroxy-3R-isobutyl-N^4 -{1S-[2-(2-methoxy-ethoxy)-ethylcarbamoyl]-2,2-dimethyl-propyl}-succinamid] the “effective blood concentrations (in words)” value [2] was “high and prolonged effective blood concentrations”, the “aqueous solubility (in words)” value (aqueous solubility; presently preferred compound) was “good aqueous solubility” and the solubility (aqueous solubility) was 4700 µg/mL (≈ 10600 µM). The IC50 [1] was 0.001 µM, the IC50 (Stromelysin-1) was 0.04 µM and the IC50 (Getatinase A) was 0.007 µM.
Compound COCCOCCOCCNC(=O)[C@@H](NC(=O)[C@H](CC(C)C)[C@H](CSc1cccs1)C(=O)NO)C(C)(C)C [Example 9, N^4 -Hydroxy-2R-isobutyl-N^1-(1S{2-[2-(2-methoxy-ethoxy)-ethoxy]-ethylcarbamoyl}-2,2-dimethyl-propyl)-3S-(thiophen-2-yl-sulfanylmethyl)-succinamide] has a solubility (aqueous solubility) of 400 µg/mL (≈ 695 µM), an IC50 [1] of 0.002 µM and an IC50 (Stromelysin-1) of 0.01 µM. For the same compound, the IC50 (Getatinase A) was 0.009 µM.
With C=CC[C@H](C(=O)NO)[C@@H](CC(C)C)C(=O)N[C@H](C(=O)NC)C(C)(C)C [Comparator 2, 2S-Allyl-N^4-(2,2-Dimethyl-1S-methylcarbamoyl-propyl)-N^4-hydroxy-3R-isobutyl-succinamide, reference compound] the solubility (aqueous solubility) was 40 µg/mL (≈ 113 µM), the IC50 [1] was 0.004 µM and the IC50 (Getatinase A) was 0.015 µM.
